Experimental findings from patent US20240294519A1, “PYRROLO[2,3-b]PYRIDINE PGDH INHIBITORS AND METHODS OF MAKING AND USING” (EPIRIUM BIO INC., priority 2021, published 2024) are described below.

For this test, the target named is T1, 15-PGDH/HPGD (Homo sapiens, UniProt P15428).
T1 construct: purchased R&D System 5660-DH
T1 sequence (P15428 1-266): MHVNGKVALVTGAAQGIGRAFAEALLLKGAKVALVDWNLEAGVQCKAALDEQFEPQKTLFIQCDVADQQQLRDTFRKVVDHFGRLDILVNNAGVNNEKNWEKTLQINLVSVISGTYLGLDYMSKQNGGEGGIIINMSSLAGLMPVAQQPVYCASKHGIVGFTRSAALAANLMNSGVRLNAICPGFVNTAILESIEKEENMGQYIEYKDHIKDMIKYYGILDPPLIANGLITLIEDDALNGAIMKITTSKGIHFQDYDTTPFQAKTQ
Briefly: hPGDH inhibitor screening biochemical assay. The note with it: 10 nM enzyme, 15 μM PGE2, 0.25 mM NAD, fluorescence ex/em 340/485 nm. The method, then: A hydroxyprostaglandin dehydrogenase inhibition screening biochemical assay can be performed to assess the synthesized inhibitors provided herein. Provided herein is an exemplary biochemical assay for hPGDH inhibitor screening.
The in vitro biochemical assay can be performed in white, 384 plates in total 20 μl reaction volume consisting of 10 nM of 15-PGDH/HPGD (R&D System #5660-DH), 15 μM Prostaglandin E2 (Sigma, C8 t #P5640-10 MG) and 0.25 mM β-Nicotinamide adenine dinucleotide sodium salt (Sigma, C8 t #N0632-5G) made in reaction buffer (50 mM Tris-HCl, pH 7.5, 0.01% Tween 20) at 10-point dose response curve for test/tool compounds. Briefly, 5 μl (4×) of compounds solution and 5 μl (final concentration, 10 nM) of enzyme solution is added to white 384 well plates and incubated for 10 mins at 37° C. 5 μl (4×) of […] and 5 μl (4×) of β-Nicotinamide adenine dinucleotide sodium salt is added to the wells and incubated for 10 mins at room temperature. Fluorescence is recorded at ex/em=340 nm/485 nm. The percentage (%) inhibition of enzyme activity was determined relative to positive control (1% DMSO) and IC50 was calculated using GraphPad prism software (four parameter-variable slope equation).

SMILES strings stand for the structures.

In turn, `CO[C@@H]1CCN(C(=O)c2cnc3c(ccn3-c3ccc(-c4ncn[nH]4)nc3)c2)C1` [Compound B-44] registered an IC50 of less than 100 nM.

In turn, `O=C(c1cnc2c(ccn2-c2cnc(-c3ncn[nH]3)nc2)c1)N1CCC(F)(F)CC1` [Compound B-45, (1-(2-(1H-1,2,4-triazol-5-yl)pyrimidin-5-yl)-1H-pyrrolo[2,3-b]pyridin-5-yl)(4,4-difluoropiperidin-1-yl)methanone] had a 50% inhibitory concentration (IC50) of less than 100 nM.

Regarding `CC1CN(C(=O)c2cnc3c(ccn3-c3ccc(-c4ncn[nH]4)nc3)c2)CC(C)O1` (centres unmarked) [Compound B-47, (1-(6-(1H-1,2,4-triazol-5-yl)pyridin-3-yl)-1H-pyrrolo[2,3-b]pyridin-5-yl)(2,6-dimethylmorpholino) methanone], the IC50 is less than 100 nM.

`N=C(NN)c1ccc(-n2ccc3cc(C(=O)N4CCC(F)(F)CC4)cnc32)cn1` [Compound B-48, 5-(5-(4,4-difluoropiperidine-1-carbonyl)-1H-pyrrolo[2,3-b]pyridin-1-yl) picolinimidohydrazide] yielded an IC50 of less than 100 nM.

Take `CC1CN(C(=O)c2cnc3c(ccn3-c3ccc(-c4nc(N)n[nH]4)nc3)c2)CCO1` (centres unmarked) [Compound B-49, (1-(6-(3-amino-1H-1,2,4-triazol-5-yl)pyridin-3-yl)-1H-pyrrolo [2,3-b]pyridin-5-yl)(2-methylmorpholino)methanone]: the half-inhibitory concentration (IC50) was less than 100 nM.

In turn, `Nc1nnc(-c2ccc(-n3ccc4cc(C(=O)N5CCCC(F)(F)C5)cnc43)cc2)[nH]1` [Compound B-54] had an IC50 of less than 100 nM.

`CCOC(=O)Nc1cncc(-n2ccc3cc(C(=O)N4CCCC(F)(F)C4)cnc32)c1` [Compound B-55]: the IC50 is less than 100 nM.

`O=C(c1cnc2c(ccn2-c2ccc(-c3nnc[nH]3)nc2)c1)N1CCC2(CC1)CC2` [Compound B-56] returned an IC50 of less than 100 nM.

In turn, `O=C(c1cnc2c(ccn2-c2cnn(CC(F)(F)F)c2)c1)N1CCCC(F)(F)C1` [Compound B-57] displayed an IC50 of less than 100 nM.

The compound `CC(C)c1nnc(-c2ccc(-n3ccc4cc(C(=O)N5CCC(F)(F)CC5)cnc43)cc2)[nH]1` [Compound B-58] yielded a concentration for half-maximal inhibition (IC50) of less than 100 nM.

Consider `O=C(c1cnc2c(ccn2-c2cnn(CC(F)(F)F)c2)c1)N1CCCC(C(F)(F)F)C1` (centres unmarked) [Compound B-59], for which the IC50 fell in the range of 100 to 1000 nM.

For `O=C(c1cnc2c(ccn2-c2ccc3nc(N4CCOCC4)nn3c2)c1)N1CCCC(F)(F)C1` [Compound B-60], the IC50 is less than 100 nM.

`O=C(c1cnc2c(ccn2-c2ccc(-c3nnc[nH]3)cc2)c1)N1CCCC(F)(F)C1` [Compound B-61]: the IC50 was less than 100 nM.

The compound `COCCn1cc(-n2ccc3cc(C(=O)N4CCC(F)(F)CC4)cnc32)cn1` [Compound B-62] displayed an IC50 of 100 to 1000 nM.

`COC(=O)Nc1cncc(-n2ccc3cc(C(=O)N4CCC[C@H](C(F)(F)F)C4)cnc32)c1` [Compound B-65] yielded an IC50 of less than 100 nM.

For `COC(=O)Nc1cncc(-n2ccc3cc(C(=O)N4CCC[C@@H](C(F)(F)F)C4)cnc32)c1` [Compound B-66], the IC50 was less than 100 nM.

With `Nc1nnc(-c2cccc(-n3ccc4cc(C(=O)N5CCC(F)(F)CC5)cnc43)c2)[nH]1` [Compound B-71], the IC50 is less than 100 nM.

On to `CN(C)c1nnc(-c2cccc(-n3ccc4cc(C(=O)N5CCC(F)(F)CC5)cnc43)c2)[nH]1` [Compound B-73], for which the IC50 is less than 100 nM.

With `Cc1nnc(-c2ccc(-n3ccc4cc(C(=O)N5CCC(F)(F)CC5)cnc43)cc2)[nH]1` [Compound B-74], the IC50 is less than 100 nM.

For `C[C@@H]1CN(C(=O)c2cnc3c(ccn3-c3ccc(N4CCOC4=O)nc3)c2)CCC1(F)F` [Compound B-75], the IC50 was less than 100 nM.

Compound `C[C@H]1CN(C(=O)c2cnc3c(ccn3-c3ccc(N4CCOC4=O)nc3)c2)CCC1(F)F` [Compound B-76] came in with an IC50 of less than 100 nM.

`CN(C)c1nnc(-c2ccc(-n3ccc4cc(C(=O)N5CCC(F)(F)CC5)cnc43)cc2)[nH]1` [Compound B-77] registered an IC50 of less than 100 nM.

As to `Nc1nnc(-c2ccc(-n3ccc4cc(C(=O)N5CCC(F)(F)CC5)cnc43)cc2)[nH]1` [Compound B-78, (1-(4-(5-amino-4H-1,2,4-triazol-3-yl)phenyl)-1H-pyrrolo[2,3-b]pyridin-5-yl)(4,4-difluoropiperidin-1-yl)methanone], the concentration for half-maximal inhibition (IC50) was less than 100 nM.

`CN1CCN(c2ccc(-n3ccc4cc(C(=O)N5CCC(F)(F)CC5)cnc43)cn2)C1=O` [Compound B-91] yielded an IC50 of less than 100 nM.

`O=C(Nc1cncc(-n2ccc3cc(C(=O)N4CCC(F)(F)CC4)cnc32)c1)C1CC1` [Compound B-93] showed an IC50 of less than 100 nM.

The compound `O=C(c1cnc2c(ccn2-c2cnn(C3CCOCC3)c2)c1)N1CCC(F)(F)CC1` [Compound B-94] returned an IC50 of less than 100 nM.

`CCn1cc(-n2ccc3cc(C(=O)N4CCC(F)(F)CC4)cnc32)cn1` [Compound B-95] came in with an IC50 of less than 100 nM.

Compound `NC(=O)c1ccc(-n2ccc3cc(C(=O)N4CCC(F)(F)CC4)cnc32)cn1` [Compound B-104] yielded an IC50 of less than 100 nM.

Take `N#Cc1ccc(-n2ccc3cc(C(=O)N4CC[C@@H](F)C4)cnc32)cc1` [Compound B-126]: the IC50 is less than 100 nM.

Take `N#Cc1ccc(-n2ccc3cc(C(=O)N4CC[C@H](F)C4)cnc32)cc1` [Compound B-127]: the IC50 was less than 100 nM.

In turn, `O=C(c1cnc2c(ccn2-c2ccc(-c3cnc[nH]3)cc2)c1)N1CCC(F)(F)CC1` [Compound B-226] registered an IC50 of less than 100 nM.

Regarding `O=C(c1cnc2c(ccn2-c2ccc(-c3nnc[nH]3)cc2)c1)N1CCSCC1` [Compound B-227], the IC50 is less than 100 nM.

The compound `O=C(c1cnc2c(ccn2-c2ccc(-c3nnc[nH]3)cc2)c1)N1CCC[C@@H](C(F)(F)F)C1` [Compound B-228] came in with an IC50 of less than 100 nM.

Take `O=C(c1cnc2c(ccn2-c2ccc(-c3nnc[nH]3)cc2)c1)N1CCC[C@H](C(F)(F)F)C1` [Compound B-229]: the IC50 was less than 100 nM.

As to `CCOC(=O)Nc1cncc(-n2ccc3cc(C(=O)N4CCSCC4)cnc32)c1` [Compound B-230], the IC50 is less than 100 nM.

In turn, `O=C(c1cnc2c(ccn2-c2ccc(-c3cn[nH]c3)cc2)c1)N1CCC(F)(F)CC1` [Compound B-233] had an IC50 of less than 100 nM.

For `O=C(c1cnc2c(ccn2-c2cnn(CC(F)F)c2)c1)N1CCC(F)(F)CC1` [Compound B-235], the IC50 was in the range of 100 to 1000 nM.

As for `O=C(Nc1cncc(-n2ccc3cc(C(=O)N4CCC(F)(F)CC4)cnc32)c1)C1CCC(F)(F)CC1` [Compound B-237], the IC50 was less than 100 nM.

The compound `CCOC(=O)Nc1cncc(-n2ccc3cc(C(=O)N4CCCC(C(F)(F)F)C4)cnc32)c1` (centres unmarked) [Compound B-238] yielded a half-inhibitory concentration (IC50) of less than 100 nM.

Regarding `CC1(O)CCCN(C(=O)c2cnc3c(ccn3-c3ccc(-c4nnc[nH]4)c(F)c3)c2)C1` (centres unmarked) [Compound B-239], the IC50 is less than 100 nM.

For the compound `CC1(O)CCCN(C(=O)c2cnc3c(ccn3-c3cc(Cl)cc(-c4nnc[nH]4)c3)c2)C1` (centres unmarked) [Compound B-240], the IC50 is less than 100 nM.

Compound `CC1(O)CCCN(C(=O)c2cnc3c(ccn3-c3cc(F)cc(-c4nnc[nH]4)c3)c2)C1` (centres unmarked) [Compound B-241] yielded an IC50 of less than 100 nM.

Take `CO[C@H]1CCCN(C(=O)c2cnc3c(ccn3-c3cc(F)cc(-c4nnc[nH]4)c3)c2)C1` [Compound B-242]: the IC50 is less than 100 nM.

`C[C@@]1(O)CCCN(C(=O)c2cnc3c(ccn3-c3ccc(-c4nnc[nH]4)cc3)c2)C1` [Compound B-243] yielded an IC50 of less than 100 nM.
